From patent US8115015B2 (Cadila Healthcare Limited, priority 2009, dated 2012)

Assay: Stability of Atorvastatin Calcium Amorphous (related substances by HPLC on storage)
Type: physicochemical
[1] = 25° ± 2° C./RH 60 ± 5%, 1 Month
[2] = 25° ± 2° C./RH 60 ± 5%, 2 Months
[3] = 25° ± 2° C./RH 60 ± 5%, 3 months
[4] = 25° ± 2° C./RH 60 ± 5%, 6 Months
[5] = 25° ± 2° C./RH 60 ± 5%, 6 Months, listed as stable amorphous atrovastatin calcium
[6] = 25°±2° C./RH 60±5% for 6 months
[7] = Cold (5° C.) 2° to 8° C., 1 Month
[8] = Cold (5° C.) 2° to 8° C., 2 Months
[9] = Cold (5° C.) 2° to 8° C., 3 months
[10] = Cold (5° C.) 2° to 8° C., 6 Months
[11] = Cold (5° C.) 2° to 8° C., 6 Months, listed as stable amorphous atrovastatin calcium

In the case of “hemi-calcium salt of (3R, 5R) 7-[3-phenyl-4-phenylcarbamoyl-2-(4-fluorophenyl)-5-isopropyl-pyrrol-1-yl]-3,5-dihydroxyheptanoic acid [Atorvastatin Calcium Amorphous]”, the “single individual unknown impurities, area percentage of HPLC” value (20 to 8° C. under cold (5° C.) condition for 6 months) is reported as < 0.1%, the “Related Substance by HPLC: 3-O-Methyl Atorvastatin Calcium” value [1] is reported as 0.02% and the “Related Substance by HPLC: Atorvastatin Desflouro Calcium” value [1] is reported as 0.05%. The “Related Substance by HPLC: Atorvastatin Diasteroisomer” value [1] was 0.08%, the “Related Substance by HPLC: Atorvastatin Lactone” value [1] was 0.07% and the “Related Substance by HPLC: 3-O-Methyl Atorvastatin Calcium” value [2] was 0.03. The “Related Substance by HPLC: Atorvastatin Desflouro Calcium” value [2] was 0.06%, the “Related Substance by HPLC: Atorvastatin Diasteroisomer” value [2] was 0.10% and the “Related Substance by HPLC: Atorvastatin Lactone” value [2] was 0.05%. For the same substance, the “Related Substance by HPLC: 3-O-Methyl Atorvastatin Calcium” value [3] was 0.03%, the “Related Substance by HPLC: Atorvastatin Desflouro Calcium” value [3] was 0.06% and the “Related Substance by HPLC: Atorvastatin Diasteroisomer” value [3] was 0.12%. For the same substance, the “Related Substance by HPLC: Atorvastatin Lactone” value [3] was 0.04%, the “Related Substance by HPLC: 3-O-Methyl Atorvastatin Calcium” value [4] was 0.03% and the “Related Substance by HPLC: Atorvastatin Desflouro Calcium” value [4] was 0.06%. The “Related Substance by HPLC: Atorvastatin Diasteroisomer” value [4] was 0.11%, the “Related Substance by HPLC: Atorvastatin Lactone” value [4] was 0.05% and the “Related Substance by HPLC: Atorvastatin diol methyl ester” value [4] was “less than 0.1%”. The “Related Substance by HPLC: Atorvastatin protected diol” value [4] was “less than 0.1%”, the “Related Substance by HPLC: t-butyl diol ester” value [4] was “less than 0.1%” and the “Related Substance by HPLC: 3-O-Methyl Atorvastatin Calcium” value [5] was “less than 0.1%”. For the same substance, the “Related Substance by HPLC: Atorvastatin Desflouro Calcium” value [5] was “less than 0.1%”, the “Related Substance by HPLC: Atorvastatin Diasteroisomer” value [5] was “less than 0.1%” and the “Related Substance by HPLC: Atorvastatin Lactone” value [5] was “less than 0.1%”. For the same substance, the “single individual known impurities, area percentage of HPLC” value [6] was “less than 0.15%”, the “single individual unknown impurities, area percentage of HPLC” value [6] was “less than 0.1%” and the “Related Substance by HPLC: 3-O-Methyl Atorvastatin Calcium” value [7] was 0.03%. For the same substance, the “Related Substance by HPLC: Atorvastatin Desflouro Calcium” value [7] was 0.06%, the “Related Substance by HPLC: Atorvastatin Diasteroisomer” value [7] was 0.08% and the “Related Substance by HPLC: Atorvastatin Lactone” value [7] was 0.08%. The “Related Substance by HPLC: 3-O-Methyl Atorvastatin Calcium” value [8] was 0.03%, the “Related Substance by HPLC: Atorvastatin Desflouro Calcium” value [8] was 0.07% and the “Related Substance by HPLC: Atorvastatin Diasteroisomer” value [8] was 0.09%. The “Related Substance by HPLC: Atorvastatin Lactone” value [8] was 0.04%, the “Related Substance by HPLC: 3-O-Methyl Atorvastatin Calcium” value [9] was 0.03% and the “Related Substance by HPLC: Atorvastatin Desflouro Calcium” value [9] was 0.07%. For the same substance, the “Related Substance by HPLC: Atorvastatin Diasteroisomer” value [9] was 0.10%, the “Related Substance by HPLC: Atorvastatin Lactone” value [9] was 0.05% and the “Related Substance by HPLC: 3-O-Methyl Atorvastatin Calcium” value [10] was 0.03%. The “Related Substance by HPLC: Atorvastatin Desflouro Calcium” value [10] was 0.05%, the “Related Substance by HPLC: Atorvastatin Diasteroisomer” value [10] was 0.08% and the “Related Substance by HPLC: Atorvastatin Lactone” value [10] was 0.06%. For the same substance, the “Related Substance by HPLC: Atorvastatin diol methyl ester” value [10] was “less than 0.1%”, the “Related Substance by HPLC: Atorvastatin protected diol” value [10] was “less than 0.1%” and the “Related Substance by HPLC: t-butyl diol ester” value [10] was “less than 0.1%”. For the same substance, the “Related Substance by HPLC: 3-O-Methyl Atorvastatin Calcium” value [11] was “less than 0.1%”, the “Related Substance by HPLC: Atorvastatin Desflouro Calcium” value [11] was “less than 0.1%” and the “Related Substance by HPLC: Atorvastatin Diasteroisomer” value [11] was “less than 0.1%”. For the same substance, the “Related Substance by HPLC: Atorvastatin Lactone” value [11] was “less than 0.1%”, the “Related Substance by HPLC: 3-O-Methyl Atorvastatin Calcium” value (Initial) was 0.02% and the “Related Substance by HPLC: Atorvastatin Desflouro Calcium” value (Initial) was 0.06%. For the same substance, the “Related Substance by HPLC: Atorvastatin Diasteroisomer” value (Initial) was 0.07%, the “Related Substance by HPLC: Atorvastatin Lactone” value (Initial) was 0.09% and the “Related Substance by HPLC: Atorvastatin protected diol” value (Initial) was 0.01%. The “single individual known impurities, area percentage of HPLC” value (cold (5° C.) condition for 6 months) was “less than 0.15%”.
